# Key:
# Assay type in all cases: in vivo, human
# [1] = test system: patients with essential tremor; experiment: T-CALM: TETRAS activities of daily living subscale (TETRAS-ADL); details: for TETRAS-ADL score (change from baseline), Mean (SD) / TETRAS-ADL score (change from baseline), Median / TETRAS-ADL score (change from baseline), Median (minimum, maximum): post-hoc
# Text: The sum of the individual scores provides the overall score, ranging from 0 to 48. The complete TETRAS ADL Subscale is as follows.
# Rate tremor's impact on activities of daily living (0-4 scoring).
# • 0=Normal. • 1=Slight voice tremulousness, only when “nervous”. • 2=Mild voice tremor. All words easily understood. • 3=Moderate voice tremor. Some words difficult to understand. • 4=Severe voice tremor. Most words difficult to understand. 2. Feeding with a Spoon • 0=Normal. • 1=Slightly abnormal. […] Spills a little. • 3=Moderately abnormal. Spills a lot or changes strategy to complete task such as using two hands or leaning over. • 4=Severely abnormal. Cannot feed with a spoon. 3. Drinking from a Glass • 0=Normal. • 1=Slightly abnormal. […] Spills a little. • 3=Moderately abnormal. Spills a lot or changes strategy to complete task such as using two, hands or leaning over. • 4=Severely abnormal. Cannot drink from a glass or uses straw or sippy cup. 4. Hygiene • 0=Normal. • 1=Slightly abnormal. […] Some difficulty but can complete task. • 3=Moderately abnormal. Unable to do most fine tasks such as putting on lipstick or shaving unless changes strategy such as using two hands or using the less affected hand. 4=Severely abnormal. Cannot complete hygiene tasks independently. 5. Dressing • 0=Normal. • 1=Slightly abnormal. […] Able to do everything but has difficulty due to tremor. • 3=Moderately abnormal. Unable to do most dressing unless changes strategy such as using Velcro, buttoning shirt before putting it on or avoiding shoes with laces. • 4=Severely abnormal. Cannot dress independently. 6. Pouring • 0=Normal. • 1=Slightly abnormal. […] Must be very careful to avoid spilling but may spill occasionally. • 3=Moderately abnormal. Must use two hands or uses other strategies to avoid spilling. • 4=Severely abnormal. Cannot pour. 7. Carrying Food Trays, Plates or Similar Items • 0=Normal. • 1=Slightly abnormal. […] Must be very careful to avoid spilling items on food tray. • 3=Moderately abnormal. Uses strategies such as holding tightly against body to carry. • 4=Severely abnormal. Cannot carry food trays or similar items. 8. Using Keys • 0=Normal. • 1=Slightly abnormal. Tremor is present but can insert key with one hand without difficulty. • 2=Mildly abnormal. Commonly misses target but still routinely puts key in lock with one hand. • 3=Moderately abnormal. Needs to use two hands or other strategies to put key in lock. • 4=Severely abnormal. Cannot put key in lock. 9. Writing • 0=Normal. • 1=Slightly abnormal. […] Difficulty writing due to tremor. • 3=Moderately abnormal. Cannot write without using strategies such as holding the writing hand with the other hand, holding pen differently or using large pen. • 4=Severely abnormal. Cannot write. 10. Working. If Patient is Retired, Ask as if they were Still Working. If the Patient is a Housewife, Ask the Question as it Relates to Housework: • 0=Normal. • 1=Slightly abnormal. […] Tremor interferes with work; able to do everything, but with errors. • 3=Moderately abnormal. Unable to continue working without using strategies such as changing jobs or using special equipment. • 4=Severely abnormal. Cannot perform any job or household work. 11. Overall Disability with the Most Affect Task (Name Task, e.g. Using Computer Mouse, Writing, Etc.) • Task ______ • 0=Normal. • 1=Slightly abnormal. […] Tremor interferes with task but still able to perform task. • 3=Moderately abnormal. Can do task but must use strategies. • 4=Severely abnormal. Cannot do the task. 12.
# Analyses of the TETRAS-ADL was conducted using the same type of ANCOVA model as described for the TETRAS-PS, using two-sided tests at the alpha=0.05 level of significance (FIG. 2 and Table 2).
# [2] = test system: patients with essential tremor; experiment: PK/PD: Cmin exposure of CX-8998 vs change in TETRAS-PS (Hill equation); details: steady state
# Text: Pharmacodynamic variables (Response) evaluated included change from baseline in TETRAS performance subscale, TETRAS activities of daily living, TETRAS total score.
# [3] = test system: patients with essential tremor; experiment: T-CALM: ECG, vital signs, laboratory and examination safety assessments
# Method: Electrocardiogram results were calculated as the average of the triplicate records at each time point. Baseline was defined as the mean of the triplicate values obtained pre-dose at Day 1. If this value was not available, the mean of the triplicate records obtained at screening were used.
# Safety procedures involved collection of all TEAEs (treatment-emergent adverse events) coded into the Medical Dictionary for Regulatory Activities (MedDRA) version 20. Adverse events were classified by maximum severity, drug-related adverse events, serious adverse events, and adverse events leading to patient discontinuation.
# [4] = Food effect: MR2 capsules fed vs fasted; details: MR2 CX-8998, single 8 mg dose
# Text: Subjects will be screened for study eligibility within 28 days before administration of the first dose of study drug. Subjects who meet the study eligibility criteria will be admitted to the clinical research unit in the afternoon of the day before administration of the first dose of study drug (Period 1/Day −1).
# [5] = patients Minimally Improved by CGI-I, Day 15
# [6] = patients Minimally Improved by CGI-I, Day 28
# [7] = patients Minimally Improved by PGIC, Day 15
# [8] = patients Minimally Improved by PGIC, Day 28
smiles,measurement,setting,value
CC(C)c1ccc(CC(=O)N[C@H](C)c2ccc(OCC(F)(F)F)cn2)cc1 [CX-8998],"responders: improvement of at least 5 points by TETRAS-ADL score, %",[1]; Day 15,(46.2%)
same,"responders: improvement of at least 5 points by TETRAS-ADL score, number","[1]; Day 15, N 39",18
same,"TETRAS-ADL change from baseline 0 change: subjects, number (%)","[1]; Day 15, N = 39",2 (5.1%)
same,"TETRAS-ADL change from baseline >0 to 1 point improvement: subjects, number (%)","[1]; Day 15, N = 39",5 (12.8%)
same,"TETRAS-ADL change from baseline >0 to 1 point worsening: subjects, number (%)","[1]; Day 15, N = 39",1 (2.6%)
same,"TETRAS-ADL change from baseline >1 to 2.5 point improvement: subjects, number (%)","[1]; Day 15, N = 39",2 (5.1%)
same,"TETRAS-ADL change from baseline >1 to 2.5 point worsening: subjects, number (%)","[1]; Day 15, N = 39",3 (7.7%)
same,"TETRAS-ADL change from baseline >2.5 to 5 point improvement: subjects, number (%)","[1]; Day 15, N = 39",7 (17.9%)
same,"TETRAS-ADL change from baseline >2.5 to 5 point worsening: subjects, number (%)","[1]; Day 15, N = 39",3 (7.7%)
same,"TETRAS-ADL change from baseline >5 to 10 point improvement: subjects, number (%)","[1]; Day 15, N = 39",11 (28.2%)
same,"TETRAS-ADL change from baseline >5 to 10 point worsening: subjects, number (%)","[1]; Day 15, N = 39",0
same,"TETRAS-ADL change from baseline >10 point improvement: subjects, number (%)","[1]; Day 15, N = 39",5 (12.8%)
same,"TETRAS-ADL change from baseline >10 point worsening: subjects, number (%)","[1]; Day 15, N = 39",0
same,"responders: improvement of at least 5 points by TETRAS-ADL score, %",[1]; Day 28,(29.7%)
same,"responders: improvement of at least 5 points by TETRAS-ADL score, number","[1]; Day 28, N 37",11
same,"TETRAS-ADL change from baseline 0 change: subjects, number (%)","[1]; Day 28, N = 37",5 (13.5%)
same,"TETRAS-ADL change from baseline >0 to 1 point improvement: subjects, number (%)","[1]; Day 28, N = 37",2 (5.4%)
same,"TETRAS-ADL change from baseline >0 to 1 point worsening: subjects, number (%)","[1]; Day 28, N = 37",3 (8.1%)
same,"TETRAS-ADL change from baseline >1 to 2.5 point improvement: subjects, number (%)","[1]; Day 28, N = 37",3 (8.1%)
same,"TETRAS-ADL change from baseline >1 to 2.5 point worsening: subjects, number (%)","[1]; Day 28, N = 37",3 (8.1%)
same,"TETRAS-ADL change from baseline >2.5 to 5 point improvement: subjects, number (%)","[1]; Day 28, N = 37",7 (18.9%)
same,"TETRAS-ADL change from baseline >2.5 to 5 point worsening: subjects, number (%)","[1]; Day 28, N = 37",3 (8.1%)
same,"TETRAS-ADL change from baseline >5 to 10 point improvement: subjects, number (%)","[1]; Day 28, N = 37",6 (16.2)
same,"TETRAS-ADL change from baseline >5 to 10 point worsening: subjects, number (%)","[1]; Day 28, N = 37",0
same,"TETRAS-ADL change from baseline >10 point improvement: subjects, number (%)","[1]; Day 28, N = 37",5 (13.5%)
same,"TETRAS-ADL change from baseline >10 point worsening: subjects, number (%)","[1]; Day 28, N = 37",0
same,"TETRAS-ADL score (change from baseline), Mean (SD)",[1]; [5],−3.7 (4.21)
same,"TETRAS-ADL score (change from baseline), Median",[1]; [5],−2.0
same,"TETRAS-ADL score (change from baseline), Mean (SD)",[1]; [6],−4.4 (8.10)
same,"TETRAS-ADL score (change from baseline), Median (minimum, maximum)",[1]; [6],"−1.0 (−24, 3)"
same,"TETRAS-ADL score (change from baseline), Mean (SD)",[1]; [7],−3.3 (4.27)
same,"TETRAS-ADL score (change from baseline), Median",[1]; [7],−4.0
same,"TETRAS-ADL score (change from baseline), Mean (SD)",[1]; [8],−1.6 (3.84)
same,"TETRAS-ADL score (change from baseline), Median (minimum, maximum)",[1]; [8],"−1.0 (−7, 3)"
same,"Emax, change from baseline in TETRAS-PS (Hill equation)",[2],approximately −4.1
same,integrated analysis of electrocardiogram outliers,"[3]; T-CALM, efficacious doses",no CVS safety signals
same,clinical laboratory parameters vs placebo,[3]; in vivo,No clinically meaningful differences
same,"vital signs, ECG, neurological and physical examinations",[3]; in vivo,No clinically significant abnormalities
same,effect of fed state on overall exposure (AUC),[4],does not appear to significantly impact overall exposure
same,effect of fed vs fasted state on absorption,[4],"impacts early absorption of the CX-8998, but does not appear to significantly impact late absorption"
